From PMC7708037, “Targeting OGG1 arrests cancer cell proliferation by inducing replication stress” (Nucleic Acids Research, 2020)
“Also recorded” adds a separate entry of the source.

Columns and labels:
[1] = test system: A3 xenograft tumors; test: Mouse xenograft experiment; type: in vivo; conditions: A3 subcutaneous tumors in NOD-SCID mice, oral 20 mg/kg, increased to 40 mg/kg
Experimental: Animal experiments were conducted as per the European directive, ethical guideline and regulations of the regional animal ethical committee Stockholm 2010/63 (N8914). Upon arrival to animal facility, animals were acclimatized in the animal house for a week with ad lib food and water, with a 12 h light cycle and the temperature and humidity set according to laboratory animal guidelines and regulations. For the xenograft experiment involving inducible shRNA, 1 × 10^7 non-targeting luciferase transfected A3 cells in 50% matrigel in PBS were injected into flank region of BALB/c nude mice. Later, mice from non-targeting and shRNA groups were randomly divided into two groups containing eight mice per group. […] Tumor volume was measured using calipers (length × 0.52 × width × width) and bioluminescence images were taken using an IVIS spectrum in vivo imaging system (Perkin-Elmer) after intraperitoneal injection of D-luciferin (150 mg/kg in PBS). […] Following lysis by three freeze-thaw cycles, samples were centrifuged at 20 000 × g for 30 min, and OGG1 in the supernatant was detected by immunoblotting. […]
Figure 7. […] Tumors were excised following termination, and TH5487 target engagement was analyzed by cellular thermal shift assay, using an antibody specific for the human OGG1 protein. […]

[2] = parameters: method as in PMID 30442810; conditions: cited from earlier work
[3] = test system: EdU incorporation in A3 cells; test: EdU flow cytometry analysis; type: cell-based, human; conditions: 10 μM
Experimental: At the indicated time points, compound/dox treated cells were incubated in medium containing 10 μM 5-ethynyl-2′-deoxyuridine (EdU) (Thermo Fisher, A10044) for 20 min. Next, cells were fixed in cold 70% ethanol overnight. The azide alkyne Huisgen cycloaddition (‘Click reaction’) was carried out according to the Click-iT EdU Imaging Manual (Thermo Fisher) using various fluorescent dyes: Alexa Fluor® 488 azide (Thermo Fisher, A10266), Alexa Fluor® 647 azide (Thermo Fisher, A10277), or TAMRA azide (Thermo Fisher, T10182), depending on assay conditions. Samples were incubated with Alexa Fluor® 488 Mouse anti-H2AX (pS139) (BD Biosciences, 560445) overnight at 4°C and finally stained with DAPI solution [10 μg/ml DAPI (Sigma, D9542), 0.1 mg/ml RNase A (Thermo Fisher, EN0531), 1% BSA in PBS] for 20 min at room temperature. Measurements were done using a Navios Flow Cytometer (Beckman Coulter). Data was analyzed using Kaluza® Flow Analysis Software (Beckman Coulter).
Supplementary Fig. S7: EdU incorporation in OGG1 perturbed A3 cells. A. Cells harboring the indicated shRNA constructs were treated with doxycycline for 48, 96 and 144 h and pulsed with EdU for 20 minutes before fixation, followed by Alexa-488 conjugation by click chemistry and quantitation by flow cytometry. […] Statistical significance was determined using unpaired, two-sided T-tests (*, […]

## O=C(Nc1ccc(I)cc1)N1CCC(n2c(=O)[nH]c3c(Br)cccc32)CC1 [TH5487]
[1]
  Xenograft growth inhibition: not able to detect xenograft growth inhibition
[2]
  Fraction associated with plasma proteins: more than 99%
[3]
  DNA synthesis (EdU incorporation): only detectable after 96 h treatment; also recorded: DNA synthesis was reduced
